According to the CheMixHub ionic liquid set:

Test: xn = mol fraction of the nth substance listed
Conditions: 298.15 K, 101 kPa

CCCCCCCCn1cc[n+](C)c1.N#C[S-] + [Br-].[Li+] + CN1CCCC1=O
Conditions | viscosity [mPa·s]
x1 = 0.001194, x2 = 0.02592 | 2.51
x1 = 0.001279, x2 = 0.05082 | 3.301
x1 = 0.001363, x2 = 0.07495 | 4.627
x1 = 0.002361, x2 = 0.07487 | 4.663
x1 = 0.002564, x2 = 0.05075 | 3.33
x1 = 0.002749, x2 = 0.02588 | 2.538
x1 = 0.003543, x2 = 0.07478 | 4.688
x1 = 0.003719, x2 = 0.05069 | 3.358
x1 = 0.003898, x2 = 0.02585 | 2.568
x1 = 0.004852, x2 = 0.05063 | 3.389
x1 = 0.005129, x2 = 0.07466 | 4.714
x1 = 0.00561, x2 = 0.02581 | 2.544
x1 = 0.005681, x2 = 0.05059 | 3.416
x1 = 0.006324, x2 = 0.07457 | 4.741
x1 = 0.006743, x2 = 0.02578 | 2.6
x1 = 0.007583, x2 = 0.07448 | 4.77
x1 = 0.007954, x2 = 0.05048 | 3.441
x1 = 0.008125, x2 = 0.02574 | 2.622
x1 = 0.008906, x2 = 0.07438 | 4.799
x1 = 0.009097, x2 = 0.05042 | 3.471
x1 = 0.009222, x2 = 0.02572 | 2.651
x1 = 0.009986, x2 = 0.05037 | 3.503
x1 = 0.01013, x2 = 0.02569 | 2.674
x1 = 0.01054, x2 = 0.07426 | 4.824

CCCCCC[n+]1ccn(C)c1.N#C[S-] + [Br-].[Li+] + CN1CCCC1=O
Conditions | viscosity [mPa·s]
x1 = 0.001485, x2 = 0.05195 | 3.247
x1 = 0.00149, x2 = 0.02731 | 2.398
x1 = 0.001549, x2 = 0.07614 | 4.405
x1 = 0.003034, x2 = 0.02727 | 2.411
x1 = 0.003327, x2 = 0.07601 | 4.433
x1 = 0.003386, x2 = 0.05185 | 3.276
x1 = 0.004842, x2 = 0.05177 | 3.304
x1 = 0.004935, x2 = 0.02722 | 2.44
x1 = 0.004954, x2 = 0.07588 | 4.462
x1 = 0.005883, x2 = 0.02719 | 2.46
x1 = 0.006254, x2 = 0.0517 | 3.332
x1 = 0.006429, x2 = 0.07577 | 4.49
x1 = 0.007608, x2 = 0.02715 | 2.485
x1 = 0.007678, x2 = 0.07567 | 4.518
x1 = 0.007769, x2 = 0.05162 | 3.36
x1 = 0.009204, x2 = 0.07556 | 4.575
x1 = 0.009231, x2 = 0.05154 | 3.388
x1 = 0.009463, x2 = 0.0271 | 2.489
x1 = 0.009859, x2 = 0.05151 | 3.416
x1 = 0.01038, x2 = 0.02707 | 2.534
x1 = 0.01063, x2 = 0.07545 | 4.603
x1 = 0.01211, x2 = 0.02702 | 2.541
x1 = 0.01221, x2 = 0.07533 | 4.631
x1 = 0.01242, x2 = 0.05138 | 3.444

CCCCCCCCn1cc[n+](C)c1.N#C[S-] + [Cl-].[Li+] + CN1CCCC1=O
Conditions | viscosity [mPa·s]
x1 = 0.001139, x2 = 0.07166 | 3.748
x1 = 0.001259, x2 = 0.03751 | 2.694
x1 = 0.001303, x2 = 0.1042 | 5.098
x1 = 0.002343, x2 = 0.1041 | 5.122
x1 = 0.002465, x2 = 0.07157 | 3.763
x1 = 0.002516, x2 = 0.03747 | 2.708
x1 = 0.00365, x2 = 0.104 | 5.151
x1 = 0.003672, x2 = 0.03742 | 2.735
x1 = 0.003977, x2 = 0.07146 | 3.796
x1 = 0.004888, x2 = 0.1039 | 5.175
x1 = 0.005019, x2 = 0.03737 | 2.761
x1 = 0.005107, x2 = 0.07138 | 3.83
x1 = 0.00605, x2 = 0.1038 | 5.201
x1 = 0.006235, x2 = 0.0713 | 3.857
x1 = 0.006361, x2 = 0.03732 | 2.789
x1 = 0.007163, x2 = 0.1036 | 5.219
x1 = 0.00736, x2 = 0.07122 | 3.892
x1 = 0.007605, x2 = 0.03728 | 2.811
x1 = 0.00842, x2 = 0.1035 | 5.236
x1 = 0.00867, x2 = 0.07112 | 3.932
x1 = 0.008845, x2 = 0.03723 | 2.84
x1 = 0.009774, x2 = 0.1034 | 5.256
x1 = 0.009789, x2 = 0.07104 | 3.97
x1 = 0.01008, x2 = 0.03718 | 2.854

CCCCCC[n+]1ccn(C)c1.N#C[S-] + [Cl-].[Li+] + CN1CCCC1=O
Conditions | viscosity [mPa·s]
x1 = 0.001304, x2 = 0.1036 | 5.036
x1 = 0.001343, x2 = 0.0415 | 2.652
x1 = 0.001443, x2 = 0.07122 | 3.694
x1 = 0.002891, x2 = 0.1035 | 5.064
x1 = 0.002967, x2 = 0.07111 | 3.723
x1 = 0.00301, x2 = 0.04143 | 2.691
x1 = 0.004262, x2 = 0.1033 | 5.092
x1 = 0.004468, x2 = 0.071 | 3.75
x1 = 0.004767, x2 = 0.04136 | 2.745
x1 = 0.00607, x2 = 0.1032 | 5.12
x1 = 0.006095, x2 = 0.07088 | 3.806
x1 = 0.00649, x2 = 0.04129 | 2.765
x1 = 0.007465, x2 = 0.07079 | 3.848
x1 = 0.007616, x2 = 0.04124 | 2.776
x1 = 0.007643, x2 = 0.103 | 5.148
x1 = 0.008578, x2 = 0.07071 | 3.887
x1 = 0.008753, x2 = 0.1029 | 5.176
x1 = 0.009233, x2 = 0.04117 | 2.794
x1 = 0.01021, x2 = 0.1027 | 5.204
x1 = 0.0105, x2 = 0.04112 | 2.823
x1 = 0.0108, x2 = 0.07055 | 3.923
x1 = 0.01107, x2 = 0.1026 | 5.231
x1 = 0.01163, x2 = 0.04107 | 2.837
x1 = 0.01204, x2 = 0.07046 | 3.961
